The test system of one series is myosin light chain (MLC). Briefly: Western analysis of MLC phosphorylation (Ser19) in thrombin treated hBMVECs. Conditions: thrombin 0.1 unit/ml 5 min; L-NIO or FeTPPS 10 μM; GSNO or SIN-1 various concentrations. Format: cell-based, human. How it is done: (§1) Cell culture: Primary human brain microvascular endothelial cells (hBMVECs) were purchased from Angio-Proteomie (Cat #: cAP-0002, Atlanta, Ga.). The cells were cultured in cell culture flasks or plates precoated with Quick Coating Solution (Angio-Proteomie; Cat #: cAP-01) and maintained in Endothelial Growth Medium (Angio-Proteomie; Cat #: cAP-02) at 37° C. under 5% CO2/95% air. When the cells were almost confluent, the medium was replaced with endothelial basal medium (Angio-Proteomie; Cat #: cAP-03) containing 0.5% fetal bovine serum (FBS; Life Technologies, Grand Island, N.Y.) about 8-12 hours before the experiment. No institutional approval was required for this study. The study was not pre-registered.
Western immunoblot analysis was performed by standard method using 50 μg of cell lysates. Following the SDS-PAGE electrophoresis, proteins were transferred from the gel onto the Polyvinylidene fluoride membrane (GE Healthcare Life Sciences, Marlborough, Mass.). Membranes were blocked with non-fat dry milk (Santa Cruz Biotechnology) or I-Block™ (ThermoFisher Scientific, Waltham, Mass.) for detection of phospho-proteins and incubated with primary antibodies, such as MBP (Santa Cruz Biotech Cat #: sc13914; RRID: AB_648798), phospho-(Ser^19) MLC (Abeam, Cat #: ab2480; RRID: AB_303094), MLC (Abeam, Cat #: ab79935; RRID:AB_1952220), P-actin (Santa Cruz Biotechnology, Cat #: sc-47778; RRID:AB_2714189), phospho-eNOS (Ser^1177) (Cell Signaling, Cat #: 9571; RRID: AB_329837, Danvers, Mass.), eNOS (Cell Signaling, Cat #: 32027), RhoA (Santa Cruz Biotechnology; Cat #: sc418; RRID: AB_628218) or 3-nitrotyrosine (Abeam, Cat #: ab61392; RRID: AB_942087). Following washing, the membranes were incubated with horseradish peroxidase conjugated secondary antibody (Jackson Immunoresearch Lab, West Grove, Pa.), washed and then incubated with ECL reagent (Amersham Life Science, Pittsbrugh, Pa.), and exposed to Amersham Hyperfilm ECL film

The subject of series [1] is intracellular Ca^2+ ([Ca^2+]i) influx. As to the kind of experiment: Assay for intracellular Ca2+ influx in thrombin treated hBMVECs. The series is classed as cell-based, human. Conditions: thrombin 0.1 unit/ml; L-NIO or FeTPPS 10 μM; GSNO or SIN-1 various concentrations. How it is done:
as §1, with “pre-registered. Intracellular Ca^2+ concentration ([Ca^2+]i) was measured with Fluo-4 Direct Calcium Assay Kit (Thermo Fisher Scientific, Cat #: F10471, Grand Island, N.Y.). Briefly, culture medium in the 96-well plate was replaced with a Ca^2+ sensitive dye Fluo-4 in an endothelial basal medium. After 30 min incubation, the dye was removed and cells were incubated with the original medium with or without the drugs at 37° C. for 15 min. Following thrombin treatment, time course changes of fluorescent intensity were quantified using a CLARIOstar multi-well fluorometer (BMG Labtech, Cary, N.C.).” for “pre-registered.”

Series [2] deals with hBMVECs. As to the kind of experiment: Assay of trans-endothelial electrical resistance (TEER) in thrombin treated hBMVECs. Format: cell-based, human. Conditions: thrombin 0.1 unit/ml; GSNO 100 μM or SIN-1 500 μM pretreated 2 hr. The procedure: as §1, with “pre-registered. For evaluation of the endothelial barrier function, hBMVECs were plated on fibronectin-coated polycarbonate filters (Transwell system, Corning, Midland, N.C.) containing Endothelial Growth Medium (Angio-Proteomie Cat #: cAP-02). The medium was renewed every other day. Five days after seeding, the medium was replaced with Endothelial Basal Medium (Angio-Proteomie Cat #: cAP-03) containing 0.5% FBS and incubated for 2 days. Following drug treatments, transendothelial electrical resistance (TEER) was measured by EVOM2 (Word Precision Instruments) as described previously (Li et al., 2006).” for “pre-registered.”

The subject of series [3] is protein-associated 3-nitrotyrosine. Briefly: Assay for protein-associated nitrotyrosine in hBMVECs. Format: cell-based, human. How it is done: as §1
Cellular levels of protein-associated 3-nitrotyrosine were analyzed by ELISA Kit (Abeam, Cat #: ab116691) and Western blot analysis using antibody specific to 3-nitrotyrosine (Abeam, Cat #: ab61392). For the ELISA, hBMVECs were lysed in extraction buffer provided with the kit followed by centrifugation at 16,000×g 4° C. The cell lysate supernatants were subjected to protein quantification with Bio-Rad DC protein assay kit (Bio-Rad, Hercules, Calif.) and the equal amounts of proteins (500 μg) were loaded onto 96 well microplate coated with 3-nitrotyrosine capture antibody and followed by incubation with biotin-conjugated 3-nitrotyrosine detector antibody. Following washing, the plates were incubated with HRP-conjugated streptoavidin and the levels of 3-nitrotyrosine were measured by incubation with 3,3′,5,5′-tetramethylbenzidine solution and colorimetric analysis at […] using SpectraMax 190 Microplate Reader (Molecular Devices, Sunnyvale, Calif.). For analysis of degree of RhoA tyrosine nitration, the cell lysates were immunoprecipiated with antibody specific to 3-nitrotyrosine (Abeam) and the levels of tyrosine nitrated RhoA were analyzed by Western analysis for RhoA.

A further series relates to RhoA. As to the kind of experiment: RhoA activity assay in thrombin treated hBMVECs. Particulars: thrombin 0.1 unit/ml 5 min; L-NIO or FeTPPS 10 μM pretreated 30 min; GSNO or SIN-1 various concentrations pretreated 2 hr. Format: cell-based, human. The procedure:
as §1
RhoA activity in hBMVECs was analyzed by RhoA Activation Assay Kit (Abeam Cat #: ab211164, Cambridge, Mass.). Briefly, following drug treatments, the cells were lysed with 1× Assay buffer provided in the kit. Lysates were centrifuged (14,000×g for 10 sec), and supernatants were incubated with agarose beads coupled to GST-Rhotekin-Rho binding domain (RBD) for 2 h at 4° C. Beads were then washed with 1× Assay buffer and GTP-bound RhoA was eluted with 2×SDS-PAGE sample buffer. Amounts of active (GTP-bound) RhoA were determined by Western blot analysis using antibody specific to RhoA (Abeam).

Series [4] concerns hBMVECs. As to the kind of experiment: Assay for F-actin stress fiber development in thrombin treated hBMVECs. The series is classed as cell-based, human. Particulars: thrombin 0.1 unit/ml 30 min; GSNO 100 μM or SIN-1 100 μM pretreated 2 hr. How it is done: as §1
Assay for F-actin stress fiber development and endothelial cell contraction: hBMVECs were cultured on fibronectin-coated chamber slides (BD Bioscience). Following drug treatments, the cells were fixed with 4% (wt/vol) paraformaldehyde, permeabilized by the addition of 0.25% Triton X-100, and blocked by 2% bovine serum albumin (BSA) in phosphate buffered saline (PBS). […] The density of fluorescence was analyzed by ImageJ (NIH, Bethesda, Md.).

Another series deals with EAE mice. Briefly: Active EAE (MOG35-55), clinical score. Format: in vivo, C57BL/6 mice.
The subject of a further series is lymphocytes in blood. Briefly: Total lymphocyte count in blood of normal mice (lymphopenic effect). Particulars: normal mice without EAE, 1 mg/kg/day for 19 days. Format: in vivo, C57BL/6 mice. How it is done:
The bloods collected in EDTA blood collection tubes (BD Biosciences) were analyzed by an automated hematology analyzer for counting total lymphocytes. For counting of each subset of lymphocytes, 50 μl of blood was mixed with staining buffer (20 μl) containing fluorescence labelled antibodies and red-blood-cells were lysed with FACS lysing solution (BD Biosciences) prior to fluorescence flow-cytometric analysis. For staining of CD3+, CD4+, and CD8+ cells, allophycocvanin (APC)-labeled anti-mouse CD3 (eBioscience clone 17A2), Fluorescein isothiocyanate (FITC)-labeled anti-mouse CD4 (eBioscience clone RM4-5), APC-labeled anti-mouse CD8 (eBioscience clone 53-6.7) and appropriate isotype matched controls.

Protocol for EAE mice: Female C57BL/6 mice of 8-12 weeks of age, purchased from Jackson Laboratory, were provided with food and water ad libitum and were kept in pathogen free animal care facility of Medical University of South Carolina (MUSC) throughout the study. […] EAE was induced as described previously (Nath et al., 2009). Briefly, mice were immunized subcutaneously in the flank regions with MOG35-55 peptide (MOG; 200 μg; Peptide International) emulsified (1:1) in 100 ul complete Freund's adjuvant (CFA) on day 0 and day 7. Additionally, 300 ng of Pertussis toxin (Sigma-Aldrich, St. Louis, Mo.) was given on day 0 and day 2 by i.p. injection. Pertussis toxin used as per the standardized protocol reported by us and other investigators for the induction of EAE (Nath et al., 2009). Similarly, healthy control group received subcutaneous injection of PBS and CFA emulsion on day 0 and day 7. Clinical signs of EAE were scored by examiners blinded to experimental treatments using the following scale: 0=no clinical signs of disease; 1=piloerection and sluggish; 2=limp tail (ataxia); 2.5=ataxia with partial hind limb paralysis; 3=full paralysis of hind limb; 3.5=full paralysis of hind limb with paralysis of one fore limb; 4=full paralysis of two limbs; 4.5=moribund stage; 5=death. […] The drug treatments were continued till the termination of the study (day 41 post immunization). EAE animals without drug treatment received PBS. Likewise, healthy controls received vehicle.
Clinical disease scores as average maximal scores over the treatment period (mean±SD) and analyzed using Kruskal-Wallis test. […] Significances (p value) between groups were determined using the Newman-Keul test. A value of p<0.05* and above was considered significant.

Take `Cl.N=c1c[n+](N2CCOCC2)[n-]o1` [SIN-1, 3-morpholinosydnonimine chloride]: in the series on myosin light chain (MLC), the “thrombin-induced MLC phosphorylation” value was “enhanced”. The “thrombin-induced intracellular Ca2+ influx” value in series [1] is “enhanced”. Also, the “thrombin-induced loss of TEER” value with hBMVECs [2] is “enhanced”. The RhoA tyrosine nitration result in series [3] (various concentrations, incubated 2 hr) is “increased”. Also, the “cellular levels of protein-associated 3-nitrotyrosine” value in series [3] (various concentrations, incubated 2 hr, no thrombin) was “increased”. Further, the “thrombin-induced RhoA activation” value in the series on RhoA was “enhanced”. In addition, the “thrombin-induced development of F-actin stress fiber formation” value with hBMVECs [4] is listed as “enhanced”.

For the compound `CC(=N)NCCC[C@H](N)C(=O)O.Cl.Cl` [L-NIO, N^5-(1-Iminoethyl)-L-omithine dihydrochloride], the “thrombin-induced MLC phosphorylation” value in the series with myosin light chain (MLC) is “inhibited”. The “thrombin-induced intracellular Ca2+ influx” value in series [1] is reported as “had not effect”. For the same compound, the “thrombin-induced 3-nitrotyrosine levels” value in series [3] (thrombin 0.1 unit/ml 20 min, L-NIO or FeTPPS 10 μM pretreated 30 min, ELISA) is “attenuated”. Moreover, the “thrombin-induced RhoA activation” value in the series with RhoA is “decreased”.

For the compound `CCCCCCCCc1ccc(CCC(N)(CO)CO)cc1` [FTY720], in the series with EAE mice (day 21 post immunization, 1 mg/kg/day from disease onset (GSNO oral, N6022 i.p., FTY720 oral), untreated EAE 3.5±0.5), the “clinical score at the peak of disease” value amounted to 3.0±0.87. For the same compound, the “clinical score at the remission of disease” value in the series on EAE mice (day 41 post immunization, 1 mg/kg/day from disease onset (GSNO oral, N6022 i.p., FTY720 oral), untreated EAE 2.5±0.5) is reported as 1.67±0.58. For the same compound, the “efficacy on EAE disease compared at the same dose” value in the series with EAE mice (single dose comparison of N6022, GSNO and FTY720, 1 mg/kg/day) was “less effective”. Besides, in the series on lymphocytes in blood, the “numbers of total lymphocytes, CD3+ T cells, CD4+ T cells and CD8+ cells in blood” value was “significantly reduced”.

(Values after patent publication US10925858B2, “S-nitrosoglutathione (GSNO) and GSNO reductase inhibitors for use in therapy” (MUSC FOUNDATION FOR RESEARCH DEVELOPMENT, priority 2017, dated 2021).)
